Source: the NIST ThermoML archive (doi:10.1016/j.fluid.2016.02.031)

Key:
[1] = xn = mol fraction of the nth substance listed; conditions: 100 kPa, Liquid, x2 = 0; for viscosity: Concentric cylinders viscometry; for mass density: Vibrating tube method
[2] = refractive index (Na D-line) (dimensionless); xn = mol fraction of the nth substance listed; conditions: 100 kPa, Liquid, Standard Abbe refractometry, x2 = 0

CCC(C)=O [butanone] + c1ccncc1
Conditions | mass density, [1] [kg/m3] | refractive index, [2] | viscosity, [1] [mPa·s]
288.15 K | 810.067 | 1.38157 | 0.4308
293.15 K | 804.863 | 1.37901 | 0.4152
298.15 K | 799.632 | 1.37642 | 0.3992
303.15 K | 794.371 | 1.37386 | 0.3826
308.15 K | 789.078 | 1.37125 | 0.3665
313.15 K | 783.752 | 1.36857 | 0.3499
318.15 K | 778.389 | 1.36589 | 0.3336
323.15 K | 772.985 | 1.36315 | 0.3174
328.15 K | 767.539 | 1.36042 | 0.3001
333.15 K | 762.048 | 1.35746 | 0.2829

CCC(C)=O [butanone] + OCCCO
Conditions | mass density, [1] [kg/m3] | refractive index, [2] | viscosity, [1] [mPa·s]
288.15 K | 810.067 | 1.38157 | 0.4308
293.15 K | 804.863 | 1.37901 | 0.4152
298.15 K | 799.632 | 1.37642 | 0.3992
303.15 K | 794.371 | 1.37386 | 0.3826
308.15 K | 789.078 | 1.37125 | 0.3665
313.15 K | 783.752 | 1.36857 | 0.3499
318.15 K | 778.389 | 1.36589 | 0.3336
323.15 K | 772.985 | 1.36315 | 0.3174
328.15 K | 767.539 | 1.36042 | 0.3001
333.15 K | 762.048 | 1.35746 | 0.2829
